Results: doi:10.1101/2023.11.24.568596v1 (biorxiv, 2023)

Tests used:
Conditions in all cases: binder
[1] = target: Wnk1 (Homo sapiens, UniProt Q9H4A3)
[2] = target: SLK (Homo sapiens, UniProt Q9H2G2)
[3] = target: PAK1 (Homo sapiens, UniProt Q13153)
[4] = target: T1, MST1 (Homo sapiens, UniProt Q13043)
T1 sequence (Q13043 1-487): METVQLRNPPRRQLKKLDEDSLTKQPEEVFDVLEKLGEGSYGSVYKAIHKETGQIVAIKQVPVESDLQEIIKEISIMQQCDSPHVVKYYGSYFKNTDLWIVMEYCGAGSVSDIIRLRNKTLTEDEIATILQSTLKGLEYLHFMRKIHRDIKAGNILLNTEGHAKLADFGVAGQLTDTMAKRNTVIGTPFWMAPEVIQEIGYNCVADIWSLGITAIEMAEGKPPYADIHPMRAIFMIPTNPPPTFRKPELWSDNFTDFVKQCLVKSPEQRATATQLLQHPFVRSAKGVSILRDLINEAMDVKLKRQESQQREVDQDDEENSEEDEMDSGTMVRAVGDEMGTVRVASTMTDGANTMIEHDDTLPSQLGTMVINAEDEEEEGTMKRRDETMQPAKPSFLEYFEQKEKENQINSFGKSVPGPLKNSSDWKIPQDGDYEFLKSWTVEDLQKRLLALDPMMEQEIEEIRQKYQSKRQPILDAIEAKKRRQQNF

[5] = target: T2, MST2 (Homo sapiens, UniProt Q13188)
T2 sequence (Q13188 1-491): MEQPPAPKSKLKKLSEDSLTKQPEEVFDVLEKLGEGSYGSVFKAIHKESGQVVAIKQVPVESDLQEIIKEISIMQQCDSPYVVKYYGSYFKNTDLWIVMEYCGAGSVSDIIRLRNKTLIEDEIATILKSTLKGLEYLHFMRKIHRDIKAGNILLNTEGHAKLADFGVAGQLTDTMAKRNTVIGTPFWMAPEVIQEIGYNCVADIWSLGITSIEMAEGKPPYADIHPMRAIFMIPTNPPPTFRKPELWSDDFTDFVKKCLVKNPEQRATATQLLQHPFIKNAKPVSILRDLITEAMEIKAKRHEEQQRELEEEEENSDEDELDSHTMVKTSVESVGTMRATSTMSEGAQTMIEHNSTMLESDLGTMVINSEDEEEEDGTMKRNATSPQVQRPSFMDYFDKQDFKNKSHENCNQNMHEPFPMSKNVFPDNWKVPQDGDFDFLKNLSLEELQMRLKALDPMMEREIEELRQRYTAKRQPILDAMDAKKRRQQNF

[6] = target: MST3 (Homo sapiens, UniProt Q9Y6E0)
[7] = target: MST4 (Homo sapiens, UniProt Q9P289)
Sequence of MST4 (Q9P289 whole entry): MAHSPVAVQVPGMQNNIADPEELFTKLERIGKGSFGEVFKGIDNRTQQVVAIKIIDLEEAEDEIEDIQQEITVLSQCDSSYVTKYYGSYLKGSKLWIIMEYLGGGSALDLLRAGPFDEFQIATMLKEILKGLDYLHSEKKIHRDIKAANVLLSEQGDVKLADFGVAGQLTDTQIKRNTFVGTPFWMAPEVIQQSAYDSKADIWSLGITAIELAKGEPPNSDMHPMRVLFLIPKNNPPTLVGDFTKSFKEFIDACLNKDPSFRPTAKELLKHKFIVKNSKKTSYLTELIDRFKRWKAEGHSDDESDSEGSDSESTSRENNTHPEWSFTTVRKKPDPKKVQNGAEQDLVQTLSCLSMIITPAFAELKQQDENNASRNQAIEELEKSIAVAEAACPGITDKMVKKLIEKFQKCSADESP

[8] = target: T3, EphB1 (Homo sapiens, UniProt P54762)
T3 sequence (P54762 1-984): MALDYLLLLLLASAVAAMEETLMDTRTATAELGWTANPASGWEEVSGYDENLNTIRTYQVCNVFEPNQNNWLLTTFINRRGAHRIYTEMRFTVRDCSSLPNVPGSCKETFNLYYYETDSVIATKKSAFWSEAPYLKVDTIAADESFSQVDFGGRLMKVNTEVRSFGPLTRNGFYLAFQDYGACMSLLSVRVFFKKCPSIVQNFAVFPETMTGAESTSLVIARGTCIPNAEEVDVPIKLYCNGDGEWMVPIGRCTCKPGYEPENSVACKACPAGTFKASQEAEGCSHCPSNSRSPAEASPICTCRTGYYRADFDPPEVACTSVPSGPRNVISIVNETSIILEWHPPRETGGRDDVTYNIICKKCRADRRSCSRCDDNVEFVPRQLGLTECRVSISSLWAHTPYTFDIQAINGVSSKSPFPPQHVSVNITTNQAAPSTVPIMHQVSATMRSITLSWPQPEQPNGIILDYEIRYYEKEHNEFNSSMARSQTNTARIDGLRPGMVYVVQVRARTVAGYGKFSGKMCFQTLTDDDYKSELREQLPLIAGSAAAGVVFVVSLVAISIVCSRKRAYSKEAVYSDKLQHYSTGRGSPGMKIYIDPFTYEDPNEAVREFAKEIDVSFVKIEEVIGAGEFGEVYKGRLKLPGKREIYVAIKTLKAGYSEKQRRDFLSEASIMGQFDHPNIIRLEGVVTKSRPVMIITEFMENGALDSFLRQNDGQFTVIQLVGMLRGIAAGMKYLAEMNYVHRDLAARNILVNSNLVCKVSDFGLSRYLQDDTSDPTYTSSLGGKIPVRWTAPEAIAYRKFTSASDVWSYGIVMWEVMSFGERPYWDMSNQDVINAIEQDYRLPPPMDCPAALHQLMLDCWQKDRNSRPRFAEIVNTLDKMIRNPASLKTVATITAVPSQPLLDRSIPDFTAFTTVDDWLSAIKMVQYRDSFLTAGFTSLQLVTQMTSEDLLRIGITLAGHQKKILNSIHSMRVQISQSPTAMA

[9] = target: CK2a2 (Homo sapiens, UniProt P19784)
[10] = target: NDR2 (Homo sapiens, UniProt Q9Y2H1)
Sequence of NDR2 (Q9Y2H1 whole entry): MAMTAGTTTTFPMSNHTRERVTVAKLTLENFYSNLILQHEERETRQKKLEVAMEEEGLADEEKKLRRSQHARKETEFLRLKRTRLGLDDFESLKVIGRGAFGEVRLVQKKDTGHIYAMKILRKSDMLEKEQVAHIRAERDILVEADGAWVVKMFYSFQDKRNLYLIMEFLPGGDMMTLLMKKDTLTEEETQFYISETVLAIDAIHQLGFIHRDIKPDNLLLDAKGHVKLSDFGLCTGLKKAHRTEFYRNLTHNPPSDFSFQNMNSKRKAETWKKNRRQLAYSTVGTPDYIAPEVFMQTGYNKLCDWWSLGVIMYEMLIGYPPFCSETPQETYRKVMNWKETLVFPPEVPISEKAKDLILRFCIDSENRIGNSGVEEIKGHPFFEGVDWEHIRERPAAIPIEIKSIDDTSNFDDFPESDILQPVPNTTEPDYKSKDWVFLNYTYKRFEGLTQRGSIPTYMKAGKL

Sequence of PAK1 (Q13153 whole entry): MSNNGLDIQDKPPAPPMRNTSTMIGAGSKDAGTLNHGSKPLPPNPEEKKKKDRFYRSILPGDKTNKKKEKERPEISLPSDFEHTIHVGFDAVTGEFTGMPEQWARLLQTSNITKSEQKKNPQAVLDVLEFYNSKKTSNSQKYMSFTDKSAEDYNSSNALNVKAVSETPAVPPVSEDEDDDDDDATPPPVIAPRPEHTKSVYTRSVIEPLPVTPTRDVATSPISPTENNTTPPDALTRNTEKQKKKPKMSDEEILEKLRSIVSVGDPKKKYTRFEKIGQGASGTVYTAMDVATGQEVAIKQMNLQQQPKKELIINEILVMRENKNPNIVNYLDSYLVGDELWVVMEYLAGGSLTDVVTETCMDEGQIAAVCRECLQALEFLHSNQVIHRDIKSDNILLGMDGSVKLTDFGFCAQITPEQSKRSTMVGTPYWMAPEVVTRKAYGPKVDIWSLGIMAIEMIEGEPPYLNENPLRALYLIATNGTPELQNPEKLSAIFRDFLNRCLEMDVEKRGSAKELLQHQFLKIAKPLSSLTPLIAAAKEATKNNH
Sequence of Wnk1 (Q9H4A3 whole entry): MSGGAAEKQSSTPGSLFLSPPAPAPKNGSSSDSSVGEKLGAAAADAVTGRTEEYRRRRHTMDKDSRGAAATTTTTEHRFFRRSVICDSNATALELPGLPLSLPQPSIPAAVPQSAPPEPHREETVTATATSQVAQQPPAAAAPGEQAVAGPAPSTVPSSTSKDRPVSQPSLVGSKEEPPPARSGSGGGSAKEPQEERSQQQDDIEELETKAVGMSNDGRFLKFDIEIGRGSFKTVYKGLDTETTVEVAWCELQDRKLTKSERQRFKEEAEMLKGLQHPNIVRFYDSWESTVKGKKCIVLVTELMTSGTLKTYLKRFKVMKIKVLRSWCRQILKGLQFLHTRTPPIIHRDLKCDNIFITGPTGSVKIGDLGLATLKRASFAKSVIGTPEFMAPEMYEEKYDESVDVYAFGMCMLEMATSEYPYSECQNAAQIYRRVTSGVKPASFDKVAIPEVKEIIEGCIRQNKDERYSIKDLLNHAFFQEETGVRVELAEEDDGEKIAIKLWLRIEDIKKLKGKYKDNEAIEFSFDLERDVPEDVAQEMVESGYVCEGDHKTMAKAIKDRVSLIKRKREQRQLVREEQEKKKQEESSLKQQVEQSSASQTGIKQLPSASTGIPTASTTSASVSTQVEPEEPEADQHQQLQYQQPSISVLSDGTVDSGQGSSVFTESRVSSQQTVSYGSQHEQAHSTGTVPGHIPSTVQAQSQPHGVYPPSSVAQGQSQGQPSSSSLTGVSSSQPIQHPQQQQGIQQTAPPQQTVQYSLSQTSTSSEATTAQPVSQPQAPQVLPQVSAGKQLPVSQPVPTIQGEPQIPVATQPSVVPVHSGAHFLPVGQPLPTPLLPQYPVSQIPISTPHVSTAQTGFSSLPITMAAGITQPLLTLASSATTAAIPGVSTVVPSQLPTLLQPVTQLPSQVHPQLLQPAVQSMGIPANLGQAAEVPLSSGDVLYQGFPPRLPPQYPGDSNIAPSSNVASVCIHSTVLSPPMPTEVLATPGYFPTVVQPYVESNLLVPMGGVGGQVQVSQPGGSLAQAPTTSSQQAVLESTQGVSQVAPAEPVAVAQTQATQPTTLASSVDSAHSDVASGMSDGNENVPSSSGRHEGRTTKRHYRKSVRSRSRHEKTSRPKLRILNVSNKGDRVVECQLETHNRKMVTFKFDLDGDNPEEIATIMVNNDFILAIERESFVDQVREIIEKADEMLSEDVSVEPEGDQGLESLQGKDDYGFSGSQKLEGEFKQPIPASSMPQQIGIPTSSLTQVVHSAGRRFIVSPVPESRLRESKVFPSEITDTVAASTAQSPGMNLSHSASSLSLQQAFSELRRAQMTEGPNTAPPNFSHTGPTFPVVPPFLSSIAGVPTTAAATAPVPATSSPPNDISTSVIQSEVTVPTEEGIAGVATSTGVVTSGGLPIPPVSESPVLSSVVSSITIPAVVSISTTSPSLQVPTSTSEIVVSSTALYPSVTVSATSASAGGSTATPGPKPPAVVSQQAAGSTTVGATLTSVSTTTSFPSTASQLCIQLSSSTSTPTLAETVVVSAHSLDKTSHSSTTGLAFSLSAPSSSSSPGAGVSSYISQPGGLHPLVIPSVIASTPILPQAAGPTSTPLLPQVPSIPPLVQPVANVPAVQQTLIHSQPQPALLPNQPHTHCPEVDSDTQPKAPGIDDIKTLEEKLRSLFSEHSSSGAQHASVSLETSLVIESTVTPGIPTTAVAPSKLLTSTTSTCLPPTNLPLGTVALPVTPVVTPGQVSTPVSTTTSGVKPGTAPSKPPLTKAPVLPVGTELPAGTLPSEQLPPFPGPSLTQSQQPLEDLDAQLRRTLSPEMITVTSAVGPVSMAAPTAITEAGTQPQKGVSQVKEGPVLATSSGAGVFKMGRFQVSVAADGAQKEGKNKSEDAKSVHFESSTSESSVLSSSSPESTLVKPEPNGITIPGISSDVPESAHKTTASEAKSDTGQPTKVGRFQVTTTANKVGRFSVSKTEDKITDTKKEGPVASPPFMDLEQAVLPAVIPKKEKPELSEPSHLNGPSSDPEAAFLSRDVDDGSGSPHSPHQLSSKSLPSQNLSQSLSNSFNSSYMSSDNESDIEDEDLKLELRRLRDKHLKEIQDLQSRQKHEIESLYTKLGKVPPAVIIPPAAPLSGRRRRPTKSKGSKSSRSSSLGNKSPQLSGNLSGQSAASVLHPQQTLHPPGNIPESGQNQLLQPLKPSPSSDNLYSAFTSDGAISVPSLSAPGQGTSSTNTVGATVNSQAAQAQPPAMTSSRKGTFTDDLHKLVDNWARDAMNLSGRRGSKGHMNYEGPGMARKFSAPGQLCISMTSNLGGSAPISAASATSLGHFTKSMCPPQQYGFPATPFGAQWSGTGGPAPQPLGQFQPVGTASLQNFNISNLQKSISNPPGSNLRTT
Sequence of SLK (Q9H2G2 whole entry): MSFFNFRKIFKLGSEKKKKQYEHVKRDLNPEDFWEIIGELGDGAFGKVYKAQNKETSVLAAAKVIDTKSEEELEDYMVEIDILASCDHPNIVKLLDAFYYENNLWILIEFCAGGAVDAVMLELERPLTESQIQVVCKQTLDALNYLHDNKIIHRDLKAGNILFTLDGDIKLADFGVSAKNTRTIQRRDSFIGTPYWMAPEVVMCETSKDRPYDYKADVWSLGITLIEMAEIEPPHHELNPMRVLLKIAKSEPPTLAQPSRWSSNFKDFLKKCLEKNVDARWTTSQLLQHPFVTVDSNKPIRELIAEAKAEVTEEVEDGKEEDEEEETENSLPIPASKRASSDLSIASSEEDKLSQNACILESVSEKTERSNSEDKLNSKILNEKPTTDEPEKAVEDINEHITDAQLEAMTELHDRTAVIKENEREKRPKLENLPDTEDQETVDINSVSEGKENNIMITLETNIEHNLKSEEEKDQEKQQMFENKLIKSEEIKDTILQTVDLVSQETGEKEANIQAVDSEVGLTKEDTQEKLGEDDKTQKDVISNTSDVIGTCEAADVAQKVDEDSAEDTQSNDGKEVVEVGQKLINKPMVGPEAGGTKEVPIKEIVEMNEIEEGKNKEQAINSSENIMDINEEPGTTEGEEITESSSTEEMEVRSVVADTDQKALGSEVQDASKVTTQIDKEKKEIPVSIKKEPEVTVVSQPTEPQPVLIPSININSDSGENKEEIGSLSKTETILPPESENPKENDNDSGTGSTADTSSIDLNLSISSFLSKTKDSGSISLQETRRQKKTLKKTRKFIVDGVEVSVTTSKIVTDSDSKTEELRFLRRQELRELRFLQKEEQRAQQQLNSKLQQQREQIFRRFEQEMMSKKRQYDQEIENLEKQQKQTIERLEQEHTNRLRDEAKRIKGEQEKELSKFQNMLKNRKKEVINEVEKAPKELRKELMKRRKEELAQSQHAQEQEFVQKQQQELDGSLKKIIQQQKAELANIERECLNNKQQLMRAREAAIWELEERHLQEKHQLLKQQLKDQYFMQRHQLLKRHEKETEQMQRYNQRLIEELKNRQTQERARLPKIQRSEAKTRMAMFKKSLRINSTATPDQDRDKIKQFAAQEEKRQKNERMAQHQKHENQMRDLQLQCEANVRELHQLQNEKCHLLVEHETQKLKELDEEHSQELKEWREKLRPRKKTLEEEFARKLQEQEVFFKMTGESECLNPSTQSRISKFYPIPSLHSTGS

dTm PAK1 [3] [°C]	dTm MST1 [4] [°C]	dTm MST2 [5] [°C]	dTm MST3 [6] [°C]	dTm MST4 [7] [°C]	SMILES	also measured
					CNc1ncc2cc(-c3ccc(-c4cccc(C)n4)cc3Cl)c(=O)n(CCC3CCNCC3)c2n1 [compound 22, 6-(2-Chloro-4-(6-methylpyridin-2-yl)phenyl)-2-(methylamino)-8-(2-(piperidin-4-yl)ethyl)pyrido[2,3-d]pyrimidin-7(8H)-one]	ΔTm 22 [1]: 1.5 °C; ΔTm 22 [2]: 3.9 °C
9.3	8.6	16.0	16.9	14.8	Cc1cccc(-c2ccc(-c3cc4cnc(Nc5ccc(F)c(CO)c5)nc4n(CCCCN)c3=O)c(Cl)c2)n1 [compound 33, 8-(4-Aminobutyl)-6-(2-chloro-4-(6-methylpyridin-2-yl)phenyl)-2-((4-fluoro-3-(hydroxymethyl)phenyl)amino)pyrido[2,3-d]pyrimidin-7(8H)-one]	
					CNc1ncc2cc(-c3ccc(-c4cccc(C)n4)cc3Cl)c(=O)n(CCCCN)c2n1 [compound 20, MRLW5]	ΔTm MRLW5 (20) [1]: 1.7 °C; ΔTm MRLW5 (20) [2]: 9.1 °C
6.8	4.9	7.2	12.2	9.7	Cc1cccc(-c2ccc(-c3cc4cnc(NCCCc5ccc(N)cc5)nc4n(CCCCN)c3=O)c(Cl)c2)n1 [compound 25, 8-(4-Aminobutyl)-2-((3-(4-aminophenyl)propyl)amino)-6-(2-chloro-4-(6-methylpyridin-2-yl)phenyl)pyrido[2,3-d]pyrimidin-7(8H)-one]	ΔTm 25 [1]: 2.7 °C; ΔTm 25 [2]: 5.0 °C
5.9	5.8	10.2	13.0	9.5	Cc1cccc(-c2ccc(-c3cc4cnc(Nc5cc(C(F)(F)F)ccc5C)nc4n(CCCCN)c3=O)c(Cl)c2)n1 [compound 28, 8-(4-Aminobutyl)-6-(2-chloro-4-(6-methylpyridin-2-yl)phenyl)-2-((2-methyl-5-(trifluoromethyl)phenyl)amino)pyrido[2,3-d]pyrimidin-7(8H)-one]	ΔTm 28 [8]: 5.1 °C; ΔTm 28 [1]: 2.8 °C; ΔTm 28 [9]: -4.2 °C; ΔTm 28 [2]: 4.5 °C; ΔTm 28 [10]: 7.1 °C
3.6	1.1	2.2	10.6	7.5	Cc1cccc(-c2ccc(-c3cc4cnc(NCCCN5CCCC5=O)nc4n(CCCCN)c3=O)c(Cl)c2)n1 [compound 27, MR30]	ΔTm MR30 (27) [8]: 3.0 °C; ΔTm MR30 (27) [1]: 0.8 °C; ΔTm MR30 (27) [9]: -6.3 °C; ΔTm MR30 (27) [2]: 2.6 °C; ΔTm MR30 (27) [10]: 1.5 °C
4.1	3.6	5.9	11.6	10.6	Cc1cccc(-c2ccc(-c3cc4cnc(NCCCN5CCOCC5)nc4n(CCCCN)c3=O)c(Cl)c2)n1 [compound 26, MR26]	ΔTm MR26 (26) [1]: 1.0 °C; ΔTm MR26 (26) [2]: 2.3 °C
9.1	8.7	15.8	16.7	15.3	Cc1cccc(-c2ccc(-c3cc4cnc(Nc5ccc(CCCO)cc5)nc4n(CCCCN)c3=O)c(Cl)c2)n1 [compound 30, 8-(4-Aminobutyl)-6-(2-chloro-4-(6-methylpyridin-2-yl)phenyl)-2-((4-(3-hydroxypropyl)phenyl)amino)pyrido[2,3-d]pyrimidin-7(8H)-one]	ΔTm 30 [8]: 6.5 °C; ΔTm 30 [1]: 4.8 °C; ΔTm 30 [9]: -1.8 °C; ΔTm 30 [2]: 8.6 °C; ΔTm 30 [10]: 10.7 °C
5.0	4.6	7.5	11.0	9.2	COc1cc(N2CCOCC2)ccc1Nc1ncc2cc(-c3ccc(-c4cccc(C)n4)cc3Cl)c(=O)n(CCCCN)c2n1 [compound 35, 8-(4-Aminobutyl)-6-(2-chloro-4-(6-methylpyridin-2-yl)phenyl)-2-((2-methoxy-4-morpholino-phenyl)amino)pyrido[2,3-d]pyrimidin-7(8H)-one]	
8.8	4.0	7.4	13.5	6.7	COc1cc(N2CCN(C)CC2)ccc1Nc1ncc2cc(-c3ccc(-c4cccc(C)n4)cc3Cl)c(=O)n(CCCCN)c2n1 [compound 36, 8-(4-Aminobutyl)-6-(2-chloro-4-(6-methylpyridin-2-yl)phenyl)-2-((2-methoxy-4-(4-methylpiperazin-1-yl)phenyl)amino)pyrido[2,3-d]pyrimidin-7(8H)-one]	
4.5	3.8	5.4	11.0	8.3	COc1ccc(O)c(Nc2ncc3cc(-c4ccc(-c5cccc(C)n5)cc4Cl)c(=O)n(CCCCN)c3n2)c1 [compound 34, 8-(4-Aminobutyl)-6-(2-chloro-4-(6-methylpyridin-2-yl)phenyl)-2-((2-hydroxy-5-methoxy-phenyl)amino)pyrido[2,3-d]pyrimidin-7(8H)-one]	
					CNc1ncc2cc(-c3ccc(-c4cccc(C)n4)cc3Cl)c(=O)n(C[C@H]3CC[C@H](N)CC3)c2n1 [compound 23, 23]	ΔTm 23 [1]: 2.1 °C; ΔTm 23 [2]: 8.3 °C
5.1	2.1	4.6	10.6	8.1	Cc1cccc(-c2ccc(-c3cc4cnc(NC(CO)CO)nc4n(CCCCN)c3=O)c(Cl)c2)n1 [compound 24, 8-(4-Aminobutyl)-6-(2-chloro-4-(6-methylpyridin-2-yl)phenyl)-2-((1,3-dihydroxypropan-2-yl)amino)pyrido[2,3-d]pyrimidin-7(8H)-one]	ΔTm MR24 (24) [1]: 0.2 °C; ΔTm MR24 (24) [2]: 1.9 °C
